Experiment [1] deals with human acute promyelocytic leukemia cells (HL-60). Briefly: Reduction of nitro-blue tetrazolium (NBT) by treated HL-60 cells. It counts as cell-based. Particulars: HL-60, 5 days incubation, TPA 200 ng/ml, 0.1% NBT, 20 minutes at 37° C. The method, then:
The biochemical activity of cells treated with the compound was measured as follows:
The cells after 5 days incubation are centrifuged and diluted with RPMI-1640 medium supplemented with 5% fetal calf serum, to provide a definite number of the cells. To the diluted cell suspension are then added 200 ng/ml of […] (TPA) and the resulting culture medium is then incubated for 20 minutes at 37° C. in the presence of 0.1% of NBT. Thus, the mature differentiated cells containing blue-black formazan is counted by microscopy, so that the ratio of the cells having the ability to reduce NBT, to total cells, can be calculated.

For experiment [2] the test system is unchanged. The experiment can be described thus: Differentiation of HL-60 cells, morphological changes of nuclei (Wright-Giemsa). It counts as cell-based. The settings on record: HL-60, 4 days; test concentration not stated. The method, then: The HL-60 cells are cultured in plastic flasks in RPMI-1640 medium supplemented with 5% heat inactivated fetal calf serum and antibiotics (penicillin G and streptomycin). The cells (3×10^4 /ml) were cultured with a compound of the present invention for 4 days. Growth inhibition of the cells by the test compounds was determined by counting the number of cells by microscope and relative ratio was examined by taking the number of cells by control (without test compound) as 100%. The cells are fixed and stained with Wright-Giemsa to examine the morphological changes of the nuclei.

The subject of experiment [3] is HL-60 transplanted to nude mice. The experiment can be described thus: Treatment of nude mice transplanted with HL-60. The format is in vivo, nude mouse (BALB/c, nu/nu). Particulars: per os, 200 mg/kg/day, days 9, 14 and 17 after transplantation; measured 4, 6, 8 and 11 days after first administration. The method, then: A test of treatment of nude mice, to which HL-60 have been transplanted, with a compound of the present invention is performed as follows:
A test compound (e.g., p-(5,6,7,8-tetrahydro-5,5,8,8-tetramethyl-2-naphthylcarbamoyl)benzoic acid) is suspended in 10% (v/v) Tween 80 in a concentration of 10 mg/ml. Cells (5×10^7) of HL-60 were transplanted subcutaneously to a nude mouse (BALB/c, nu/nu female Nihon Clea).
At the end of days 9, 14 and 17 after the transplantation, 0.1 ml of the suspension per 10 g of body weight of mouse were administrated per os two times at intervals of 7 hours (200 mg/kg/day).

`COC(=O)c1ccc(C=CC(=O)c2ccc3c(c2)C(C)(C)CCC3(C)C)cc1` [No. 13]: the “Reductivity of NBT” value in experiment [1] is given as 97%. Also, in experiment [2], the “Banded and Segmented Neutrophils” value stood at 4%; the “Myelocytes and Metamyelocytes” value is given as 91%; the Promyelocytes is 5%.

With `CCc1ccc(C(=O)C=Cc2ccc(C(=O)OC)cc2)cc1CC` [H Et Et H H OCH3 drawing 7], the “Reductivity of NBT” value in experiment [1] was found to be 72%. Further, in experiment [2], the “Banded and Segmented Neutrophils” value stood at 8%; the “Myelocytes and Metamyelocytes” value is recorded as 54%; the Promyelocytes worked out at 38%.

For the compound `CC(C)c1ccc(N=Nc2ccc(C(=O)O)cc2)cc1C(C)C` [No. 50], the “Reductivity of NBT” value in experiment [1] was found to be 55%. In experiment [2], the “Banded and Segmented Neutrophils” value is 11%; the “Myelocytes and Metamyelocytes” value was determined as 50%; the Promyelocytes is on record as 39%.

Regarding `COC(=O)c1ccc(N=Nc2ccc3c(c2)C(C)(C)CCC3(C)C)cc1` [No. 57], in experiment [1], the “Reductivity of NBT” value was 60%. In experiment [2], the “Banded and Segmented Neutrophils” value is reported as 10%; the “Myelocytes and Metamyelocytes” value is 49%; the Promyelocytes is listed as 41%.

Consider `CC(C)c1ccc(NC(=O)c2ccc(C(=O)O)cc2)cc1C(C)C` [No. 30], for which the “Reductivity of NBT” value in experiment [1] came out at 90%. Further, in experiment [2], the “Banded and Segmented Neutrophils” value is recorded as 11%; the “Myelocytes and Metamyelocytes” value was found to be 82%; the Promyelocytes is reported as 7%.

For the compound `CC(C)(C)c1ccc(C(=O)C=Cc2ccc(C(=O)O)cc2)cc1` [No. 9], the “Reductivity of NBT” value in experiment [1] worked out at 68%. Besides, in experiment [2], the “Banded and Segmented Neutrophils” value is reported as 6%; the “Myelocytes and Metamyelocytes” value was 48%; the Promyelocytes worked out at 46%.

Turning to `CC1(C)CCC(C)(C)c2cc(C(=O)C=Cc3ccc(C(=O)O)cc3)ccc21` [No. 11], in experiment [1], the “Reductivity of NBT” value was 95%. Further, in experiment [2], the “Banded and Segmented Neutrophils” value was 12%; the “Myelocytes and Metamyelocytes” value amounted to 86%; the Promyelocytes is 2%.

As to `CC1(C)CCC(C)(C)c2cc(NC(=O)c3ccc(C(=O)O)cc3)ccc21` [No. 35, p-(5,6,7,8-tetrahydro-5,5,8,8-tetramethyl-2-naphthylcarbamoyl)benzoic acid], in experiment [3], the Tumor growth result is “tumor growth was clearly suppressed”. Besides, the “Reductivity of NBT” value in experiment [1] worked out at 98%. In experiment [2], the “Banded and Segmented Neutrophils” value amounted to 19%; the “Myelocytes and Metamyelocytes” value is listed as 78%; the Promyelocytes amounted to 3%.

Consider `COC(=O)c1ccc(C2OC2(C)c2ccc3c(c2)C(C)(C)CCC3(C)C)cc1` (stereo not shown) [H drawing 10 H H OCH3 drawing 11], for which the “Reductivity of NBT” value in experiment [1] is listed as 81%. Also, in experiment [2], the “Banded and Segmented Neutrophils” value came out at 9%; the “Myelocytes and Metamyelocytes” value is on record as 79%; the Promyelocytes was 12%.

On to `COC(=O)c1ccc(C2OC2c2ccc3c(c2)C(C)(C)CCC3(C)C)cc1` (stereo not shown) [H drawing 10 H H OCH3 drawing 9], for which, in experiment [1], the “Reductivity of NBT” value stood at 78%. Besides, in experiment [2], the “Banded and Segmented Neutrophils” value is 18%; the “Myelocytes and Metamyelocytes” value amounted to 63%; the Promyelocytes was 19%.

Take `COC(=O)c1ccc(C(=O)Nc2ccc3c(c2)C(C)(C)CCC3(C)C)cc1` [No. 34]: the “Reductivity of NBT” value in experiment [1] is listed as 97%. In experiment [2], the “Banded and Segmented Neutrophils” value is 12%; the “Myelocytes and Metamyelocytes” value came out at 85%; the Promyelocytes stood at 3%.

As to `COC(=O)c1ccc(C2OC2c2cccc(C(C)(C)C)c2)cc1` (stereo not shown) [H tBu H H H OCH3 drawing 9], the “Reductivity of NBT” value in experiment [1] is on record as 70%. In addition, in experiment [2], the “Banded and Segmented Neutrophils” value is on record as 9%; the “Myelocytes and Metamyelocytes” value is 69%; the Promyelocytes is 20%.

Regarding `CC1=C(/C=C/C(C)=C/C=C/C(C)=C/C(=O)O)C(C)(C)CCC1` [Retinoic acid, reference compound], the “Reductivity of NBT” value in experiment [1] stood at 75%. For the same compound, in experiment [2], the “Banded and Segmented Neutrophils” value is given as 4%; the “Myelocytes and Metamyelocytes” value came to 71%; the Promyelocytes was found to be 25%.

Consider `CC(C)(C)c1cc(C(=O)C=Cc2ccc(C(=O)O)cc2)cc(C(C)(C)C)c1` [No. 8], for which the “Reductivity of NBT” value in experiment [1] was 95%. Also, in experiment [2], the “Banded and Segmented Neutrophils” value came out at 16%; the “Myelocytes and Metamyelocytes” value worked out at 82%; the Promyelocytes came to 2%.

In the case of `CC1(C)CCC(C)(C)c2cc([N+]([O-])=Nc3ccc(C(=O)O)cc3)ccc21` [H drawing 12 H H OH drawing 13], in experiment [1], the “Reductivity of NBT” value is on record as 70%. In addition, in experiment [2], the “Banded and Segmented Neutrophils” value is 7%; the “Myelocytes and Metamyelocytes” value was 53%; the Promyelocytes was found to be 40%.

(Values after US4703110A, “Benzoic acid derivatives having a para substituent which is a substituted phenyl group connected by a linking radical; useful in neoplastic cell differentiation and diagnosis” (Shudo; Koichi, priority 1984, dated 1987).)
